The values that follow are results of earlier work, collected in patent US7390507B2, “Compositions and methods for the treatment of radiation burns and other traumatic skin conditions” (priority 2004, dated 2008).

The conditions of data set [1]: in vivo.

For the compound `O=C(O)CCCCC1CCSS1` (stereo not drawn) [Alpha-Lipoic Acid], in data set [1], the “effect on skin ageing / wrinkles” value is given as “some effect”.
With `NCCCNCCSP(=O)(O)O` [amifostine], the dermato-cytoprotective effect entry (retrospective analysis) is reported as “significant dermato-cytoprotective effect”.
With `O=C1O[C@H]([C@@H](O)CO)C(O)=C1O` [topical Vitamin C, Vitamin C], the “improvement in the results of irradiated breast tissue” value (human, in vivo) is given as “without improvement”.
